Measurements taken from patent publication US20210340178A1, “NONAPEPTIDE PREVENTING INCREASED HYPERPERMEABILITY OF VASCULAR ENDOTHELIUM” (FEDERALNOYE GOSUDARSTVENNOE BUDGETNOE UCHREZHDENIE …, priority 2018, published 2021).
Read-outs that look alike come from different tables or passages of the source. Non-standard residues stand in square brackets, D forms with d. Residues, ends and D or L forms follow the SMILES beside them.

Test: Peptide half-lives in human plasma in vitro (1H-NMR spectroscopy)
Format: in vitro ADME
Conditions: for half-life: human, plasma
Description: Whole blood (100 mL) was collected from healthy donors to 50-mL tubes containing 5 mL of a preservative (130 mM citrate in phosphate buffered saline (PBS), pH 7.4). The blood was incubated for 15-20 min at room temperature followed by centrifugation at 1500 g for 15 min at 18° C. The supernatants were transferred to clear tubes and centrifuged as above. Dry NaBr was added to the plasma (280 mg per 1 mL of plasma). After dissolution of NaBr, the plasma (approx. 30 mL) was transferred to centrifuge tubes (Type 45Ti rotor, Beckman, USA) and layered with 20 mL of a solution (specific mass of […]), which was prepared as follows—11.42 g of NaCl and 100 mg of ethylenediaminetetraacetic acid (EDTA) were dissolved in distilled water in a final volume of 1 L (pH 7.4) and 281.44 g of NaBr was added. The plasma was centrifuged at 40,000 rpm for 48 hrs. The upper dark-yellow fraction containing lipoproteins and the colorless buffer fraction were discarded leaving approx. 1-cm high buffer above the apparent plasma border. Portions of plasma obtained from one donor were pooled and dialyzed for 36 hrs against 4 L of PSB free of Ca^2+ and Mg^2+(MP Biomedicals, USA) in dialysis bags with 12-14 kDa pore sizes. The dialysis procedure was repeated twice with fresh buffer changed every 24 hrs. After the dialysis, the plasma was centrifuged at 25,000 rpm (Type 45Ti rotor, Beckman, USA) for 15 min at 4° C. The supernatant fraction was collected and lyophilized. The dry matter was dissolved in D2O in a final volume equal to the plasma volume before NaBr was added, lyophilized again, dissolved in the same volume of D2O, and stored in 1-mL aliquots at −20° C. before use.
^1H-NMR spectroscopy was employed to analyze relative degradation of PIK7 (the claimed peptide) and MLC11-19 (the structural analogue) in human plasma. ^1H-NMR spectroscopy allows simultaneous direct monitoring the amounts of original full-length peptide and its fragments during the course of enzymatic hydrolysis (Isakova et al., 1986). Stability of a peptide, its degradation pathway(s) and a half-life estimate are available from a comparison of spectra obtained at different time points after the addition of a peptide to plasma. ^1H-NMR spectra were obtained using a WM-500 spectrometer (Bruker, Germany) at 37° C. Chemical shifts in ^1H-NMR spectra were measured relative to an internal standard (2,2-dimethyl-2-silapentane-5-sulfonate sodium salt). The signals were referenced by the double-resonance method. The resonances from peptide protons were identified by the differential spectroscopy method, i.e. the spectrum of blood plasma was subtracted from each spectrum obtained in the presence of peptide of interest. Peptide concentrations were 3 mg/ml.
These indicate the peptide N-terminus degradation. […] Therefore, the claimed peptide has an increased life-span in plasma that allows for long-lasting maintenance of its effective concentrations necessary to decrease the endothelial hyperpermeability under emergency conditions. Moreover, an increased life-time allows attaining the desired therapeutic effect with lower (as compared to homologues) peptide concentrations.

## C[C@H](NC(=O)[C@H](C)NC(=O)[C@H](CCCNC(=N)N)NC(=O)[C@@H](CCCCN)NC(=O)[C@@H](N)CCCCN)C(=O)N[C@@H](CCCNC(=N)N)C(=O)N[C@@H](C)C(=O)N[C@H](C(=O)N[C@@H](CO)C(N)=O)[C@@H](C)O [PIK7, H-Lys-D-Lys-Arg-Ala-Ala-Arg-Ala-Thr-Ser-NH2] (H-K[dK]RAARATS-NH2)
1H-NMR, 37° C., peptide 3 mg/ml
  T1/2, half-life in human plasma in vitro: ≥5.33 h
Human plasma in vitro
  resistance to proteolysis as compared to the structural analogue (MLC11-19): by one order of magnitude
1H-NMR, 37° C., peptide 3 mg/ml (FIG. 2), read-out: half-life in human plasma
  half-life: ≥ 7 h
1H-NMR, 37° C., peptide 3 mg/ml, read-out: T1/2, half-life in human plasma in vitro
  half-life: > 5.33 h
